{"source": "patent US20260159498A1", "about": "“AKT3 MODULATORS” (GEORGIAMUNE LLC, priority 2021, published 2026)", "note": "pIC50: −log10 of the molar value."}
{"target": "T1, Akt3 (Homo sapiens, UniProt Q9Y243)", "T1 construct": "endogenous in cells; host or cells: human CD4+/CD45RA+/CD25- naive T cells under Treg induction conditions", "T1 sequence (Q9Y243 whole entry)": "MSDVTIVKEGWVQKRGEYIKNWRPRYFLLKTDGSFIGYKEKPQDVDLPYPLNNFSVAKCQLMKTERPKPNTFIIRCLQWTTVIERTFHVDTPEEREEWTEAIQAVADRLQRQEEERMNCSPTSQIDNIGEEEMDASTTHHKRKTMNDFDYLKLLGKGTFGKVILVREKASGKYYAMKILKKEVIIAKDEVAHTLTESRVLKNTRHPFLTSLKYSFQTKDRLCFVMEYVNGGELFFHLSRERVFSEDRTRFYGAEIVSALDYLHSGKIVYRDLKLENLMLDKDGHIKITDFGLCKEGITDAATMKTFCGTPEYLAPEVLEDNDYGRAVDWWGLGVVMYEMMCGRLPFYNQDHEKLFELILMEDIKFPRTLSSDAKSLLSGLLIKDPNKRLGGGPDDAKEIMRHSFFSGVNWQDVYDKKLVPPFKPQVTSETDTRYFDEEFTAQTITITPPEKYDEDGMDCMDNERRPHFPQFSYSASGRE", "experiment": "Akt3 inhibition activity", "format": "cell-based"}
{"smiles": "Cc1cc(Nc2cc(C)c3c(c2)CN(c2cccc(Nc4ccncc4)c2)C3=O)ccn1", "note": "[Compound 44, 7-methyl-5-((2-methylpyridin-4-yl)amino)-2-(3-(pyridin-4-ylamino)phenyl)isoindolin-1-one]", "pIC50": "> 6.00"}
{"smiles": "Cc1ccc(N2Cc3cc(Nc4ccncc4)ccc3C2=O)cc1Nc1ccncc1", "note": "[Compound 27, 2-(4-methyl-3-(pyridin-4-ylamino)phenyl)-5-(pyridin-4-ylamino)isoindolin-1-one]", "pIC50": "> 6.00"}
{"smiles": "Cc1cc(Nc2cccc(-c3nc4cc(Nc5ccnc(C)c5)ccc4o3)c2)ccn1", "note": "[Compound 40, N-(2-methylpyridin-4-yl)-2-(3-((2-methylpyridin-4-yl)amino)phenyl)benzo[d]oxazol-5-amine]", "pIC50": "> 5.70"}
{"smiles": "Cc1cc(Nc2ccc3oc(-c4cccc(Nc5ccc(F)cc5)c4)nc3c2)ccn1", "note": "[Compound 43, 2-(3-((4-fluorophenyl)amino)phenyl)-N-(2-methylpyridin-4-yl)benzo[d]oxazol-5-amine]", "pIC50": "> 5.30"}
{"smiles": "O=C1c2ccc(Nc3ccncc3)c(F)c2CN1c1cccc(Nc2ccncc2)c1", "note": "[Compound 32, 4-fluoro-5-(pyridin-4-ylamino)-2-(3-(pyridin-4-ylamino)phenyl)isoindolin-1-one]", "pIC50": "> 5.30"}
{"smiles": "Cc1cc(Nc2cccc(N3Cc4cc(Nc5ccnc(C)c5)cc(C)c4C3=O)c2)ccn1", "note": "[Compound 45, 7-methyl-5-((2-methylpyridin-4-yl)amino)-2-(3-((2-methylpyridin-4-yl)amino)phenyl)isoindolin-1-one]", "pIC50": "> 6.00"}
{"smiles": "Cc1cc(Nc2ccc(-c3nc4cc(Nc5ccnc(C)c5)ccc4o3)cc2)ccn1", "note": "[Compound 39, N-(2-methylpyridin-4-yl)-2-(4-((2-methylpyridin-4-yl)amino)phenyl)benzo[d]oxazol-5-amine]", "pIC50": "> 5.30"}
{"smiles": "O=C1c2cc(F)c(Nc3ccncc3)cc2CN1c1cccc(Nc2ccncc2)c1", "note": "[Compound 33, 6-fluoro-5-(pyridin-4-ylamino)-2-(3-(pyridin-4-ylamino)phenyl)isoindolin-1-one]", "pIC50": "> 6.00"}
{"smiles": "O=C1c2ccc(Nc3ccncc3)cc2CN1c1cc(F)cc(Nc2ccncc2)c1", "note": "[Compound 37, 2-(3-fluoro-5-(pyridin-4-ylamino)phenyl)-5-(pyridin-4-ylamino)isoindolin-1-one]", "pIC50": "> 5.70"}
{"smiles": "Cc1cc2c(cc1Nc1ccncc1)CN(c1cccc(Nc3ccncc3)c1)C2=O", "note": "[Compound 31, 6-methyl-5-(pyridin-4-ylamino)-2-(3-(pyridin-4-ylamino)phenyl)isoindolin-1-one]", "pIC50": "> 5.30"}
{"smiles": "O=C1c2c(F)cc(Nc3ccncc3)cc2CN1c1cccc(Nc2ccncc2)c1", "note": "[Compound 34, 7-fluoro-5-(pyridin-4-ylamino)-2-(3-(pyridin-4-ylamino)phenyl)isoindolin-1-one]", "pIC50": "> 5.30"}
{"smiles": "O=C1c2ccc(Nc3ccncc3)cc2CN1c1ccc(F)c(Nc2ccncc2)c1", "note": "[Compound 38, 2-(4-fluoro-3-(pyridin-4-ylamino)phenyl)-5-(pyridin-4-ylamino)isoindolin-1-one]", "pIC50": "> 6.00"}
{"smiles": "Cc1cc(Nc2ccc(-c3nc4ccc(Nc5ccnc(C)c5)cc4o3)cc2)ccn1", "note": "[Compound 41, N-(2-methylpyridin-4-yl)-2-(4-((2-methylpyridin-4-yl)amino)phenyl)benzo[d]oxazol-6-amine]", "pIC50": "> 5.30"}
{"smiles": "Cc1cc(Nc2ccncc2)cc(N2Cc3cc(Nc4ccncc4)ccc3C2=O)c1", "note": "[Compound 26, 2-(3-methyl-5-(pyridin-4-ylamino)phenyl)-5-(pyridin-4-ylamino)isoindolin-1-one]", "pIC50": "> 6.00"}
{"smiles": "Cc1cc(Nc2cccc(-c3nc4ccc(Nc5ccnc(C)c5)cc4o3)c2)ccn1", "note": "[Compound 42, N-(2-methylpyridin-4-yl)-2-(3-((2-methylpyridin-4-yl)amino)phenyl)benzo[d]oxazol-6-amine]", "pIC50": "> 5.30"}
{"smiles": "Cc1cc(Nc2ccncc2)cc2c1C(=O)N(c1cccc(Nc3ccncc3)c1)C2", "note": "[Compound 30, 7-methyl-5-(pyridin-4-ylamino)-2-(3-(pyridin-4-ylamino)phenyl)isoindolin-1-one]", "pIC50": "> 6.00"}
